We go through four compounds from patent publication US20030220402A1, “Cancer remedy comprising anthranilic acid derivatives as active ingredients” (priority 2000, published 2003).

This experiment has as its system L929 cells. Briefly: Measurement of cytotoxicity using mouse tumorous cells L929 (Neutral Red assay). Particulars: 3 days culture, concentration manifesting 50% cytotoxicity. The experiment is classed as cell-based. How it is done: Measurement of Cytotoxicity Using Mouse Tumorous Cells L929
The cytotoxic activity against tumorous cells was measured according to a Neutral Red assay method [the method described in Journal of Tissue Culture Methodology, vol. 9, p. […] 24, p. […] Namely, 100 μL each of L929 cells (5×10^4 cells/mL, 10% FCS/RPM1) was added to a 96-well ELISA plate, and the cells were cultured overnight. The test compound at each measuring concentration was dissolved in a DMSO solution and added, and culturing was further continued for 3 days. To the cultured cells, was then added 2.0 μL of Neutral Red so as to provide the final concentration of 0.01%. Incubation was conducted at 37° C. for 1 hour, and the cell culture supernatant was removed. The resultant cultured cells were washed with […] of PBS twice to remove the excessive Neutral Red. To the washed cells, was then added 100 μL of a 50% ethanol-1% aqueous acetic acid. The dye incorporated in the cells was extracted, and the amount of the dye was determined by measuring the absorbance at 490 nm. The case where a drug was not added was taken as 100%, and the cytotoxicity was determined at the concentrations of the respective test compounds. […] The measurements under the same conditions in two sets each were made, and the data were, obtained from the average values.

In turn, `O=C(Cc1ccc(Oc2ccc3ccccc3c2)cc1)Nc1ccccc1C(=O)O` [Compound No. 59, 2-(4-(2-naphthyloxy)phenylacetamido)benzoic acid] returned an LD50 of 1.6 µM.

In the case of `COC(=O)c1ccccc1NC(=O)Cc1ccc(Oc2ccc(O)cc2)cc1` [Compound No. 296, methyl 2-(4-(4-hydroxyphenoxy)phenylacetamido)benzoate], the LD50 is more than 5 µM.

As to `O=C(Cc1ccc(Oc2ccc(OCc3ccccc3)cc2)cc1)Nc1ccccc1C(=O)O` [Compound No. 316, 2-(4-(4-benzyloxyphenoxy)phenylacetamido)benzoic acid], the LD50 turned out to be 0.60 µM.

On to `O=C(Cc1ccc(Oc2ccc(OC3CCCCC3)cc2)cc1)Nc1ccccc1C(=O)O` [compound 288, 2-(4-(4-cyclohexyloxyphenoxy)phenylacetamido)benzoic acid], for which the LD50 was found to be 0.20 µM.
